From article PMC3809593 (BioMed Research International, 2013)
“And” between values parts separate entries of the source, which are not always exact repeats. Identical values can stand only once. “Also recorded” adds a separate entry of the source. Ends that are not written are not given here.

How the values were obtained:
[1] = test system: MDA-MB-231 (breast adenocarcinoma) tumour cell line; experiment: MTT viability assay (cytostasis %); assay type: cell-based, human; details: MDA-MB-231, 72 h incubation in RPMI, mean of three absorbance readings
Method: (§1) Consecutive peptide dilutions with RPMI 1640 (Sigma Aldrich) were used, whereas the working concentrations were 120 μM, 60 μM, 30 μM, 15 μM, 7.5 μM, 3.5 μM, 1.8 μM, and 0.9 μM in a final volume of 200 μL/well. […] Everything was treated in a sterile fashion.
(§2) We analysed the cytotoxicity of the peptide chosen for our study in relation to two adherent tumour cell lines: MDA-MB-231 (breast adenocarcinoma) and M14K (human mesothelioma). These lines were cultivated in the same conditions as those used for the optimization of the number of target cells. The negative control was represented by target cells incubated without peptide. Viability was analysed after 72 h of incubation at 37°C, 5% CO2, by two methods: MTT colorimetric assay [3-(4,5-dimethylthiazol-2-yl)-2,5-diphenyltetrazolium bromide] and flow cytometry using PE Annexin V (BD Pharmingen) and 7-AAD (7-aminoactinomycin D).
(§3) [3-(4,5-Dimethylthiazol-2-yl)-2,5-diphenyltetrazolium Bromide] […] Absorbance was measured at 570 nm against a 620 nm reference wavelength using a Tecan Sunrise plate reader. Relying on the absorbance values read in the cells incubated with the peptide studied (A peptide cells) and depending on the absorbance value read in peptide-free cells (A negative control), we calculated the cytostasis percentage, that is, the percentage of cells affected by apoptosis of the whole number of cells in any of the wells analysed. […]

[2] = test system: M14K (human mesothelioma) tumour cell line; experiment: MTT viability assay (cytostasis %); assay type: cell-based; details: 72 h incubation in RPMI, mean of three absorbance readings
Method: as §1, §2, §3

[3] = test system: MDA-MB-231 (breast adenocarcinoma) tumour cell line; experiment: PE Annexin V / 7-AAD flow cytometry apoptosis assay; assay type: cell-based, human; details: MDA-MB231, 72 h in RPMI, 5000 events/well; for Q1—dead cells (7-AAD+): negative control 1.8; for Q2—late apoptosis cells (7-AAD+ Annexin V+): negative control 3; for Q4—early apoptosis cells (Annexin V+ 7-AAD−): negative control 4.7; for Q3—living cells (7-AAD− Annexin V−): negative control 90.5
Method: as §2
(§4) PE Annexin V and 7-AAD (7-Aminoactinomycin D) (BD Pharmingen) Viability Assay. This assay was used to detect and measure the apoptotic process by means of flow cytometry. Apoptosis is characterized by cell morphology changes, nuclear condensation, pyknosis, and also by a series of biochemical events causing mitochondrial membrane and nuclear DNA degradation. Phosphatidylserine, which is normally present in the inner layer of the lipid bilayer of the cell membrane, is exposed at the surface of the cells undergoing various stages of apoptosis. Annexin V has great affinity to phosphatidylserine residue, and 7-AAD was used as vital nuclear DNA stain. 96-well cell culture plates were used in our study. The first (1) and last (12) columns of wells only contained culture medium (RPMI 1640) in order to prevent the edge effect. Columns 2 and 11 of wells only contained peptide-free cell suspension (negative control). Columns 3–10 contained target cells and consecutive peptide dilutions. We worked in triplicate for the two cell lines and all the peptide concentrations we used. After 72 h of incubation at 37°C, 5% CO2, adherent cells were detached by trypsination (3–10 minutes of incubation at 37°C with Eurobio trypsin). The cell suspension was distributed in such a manner that each FACS tube had 1 × 10^5 cells. 3 FACS tubes were assessed; the first FACS tube contained unmarked cells, the second FACS tube contained Annexin V PE, and the third FACS tube contained Annexin V PE/7-AAD. Data collection and interpretation were done on a FACS Canto II flow cytometer using the FACSDiva Software (Becton Dickinson) (Figure 3).
Flow cytometry allowed apoptosis assessment for the MDA-MB-231 cell line incubated with the […]. 5000 events/well were acquired, and the results were compared with the viability of the peptide-free cells (negative control).

[4] = test system: M14K (human mesothelioma) tumour cell line; experiment: as above; assay type: cell-based; details: for Q1 (7-AAD+) dead cells / Q2 (7-AAD+ Annexin V+) late apoptotic cells / Q4 (Annexin V+ 7AAD−) early apoptotic cells: 72 h in RPMI, 5000 events/well; for Q1 (7-AAD+) dead cells: negative control 2.1; for Q2 (7-AAD+ Annexin V+) late apoptotic cells: negative control 3.8; for Q4 (Annexin V+ 7AAD−) early apoptotic cells: negative control 4.5
Method: as §2, §4

MCF7 tumour cell line = details: cited from earlier work
Description: MDA-MB-231 is an adherent breast adenocarcinoma cell line, one of the three known breast cancer cell lines: MCF-7, MDA-MB-231, and T-47D [18, 19].

[5] = cited from earlier work
Description: This peptide is water soluble and nonhaemolytic at its effective and amphiphilic antimicrobial concentrations. At small concentrations, it inhibits the growth of numerous species of bacteria and fungi, and it induces osmotic lysis in protozoa ... || According to the product specifications, this peptide is soluble in distilled water with 0.1% TFA. As the solution is meant to be inserted into cell culture medium, we have chosen RPMI as the most suitable medium. This medium also allowed us to maintain an optimum pH (7.2–7.4) as we inserted the peptide solution. The extemporaneous peptide solution was utilized immediately after preparation.

[6] = at its effective antimicrobial concentrations; cited from earlier work
Description: This peptide is water soluble and nonhaemolytic at its effective and amphiphilic antimicrobial concentrations. At small concentrations, it inhibits the growth of numerous species of bacteria and fungi, and it induces osmotic lysis in protozoa ...

In the case of GIGKFLHSAKKFGKAFVGEIMNS [Magainin II], the “cytostasis % (MTT test)” value ([1]; 15 μM peptide) is reported as “absent”, the “cytostasis % (MTT test)” value ([1]; 30 μM peptide) is reported as “persisted; also recorded: significantly lower” and the “cytostasis % (MTT test)” value ([2]; 15 μM peptide) is reported as “absent”. The “cytostasis % (MTT test)” value ([2]; 30 μM peptide) was “significantly lower”, the “Q1—dead cells (7-AAD+)” value ([3]; 60 μM peptide) was 0.8% and the “Q2—late apoptosis cells (7-AAD+ Annexin V+)” value ([3]; 60 μM peptide) was 19.6%. For the same sequence, the “Q4—early apoptosis cells (Annexin V+ 7-AAD−)” value ([3]; 60 μM peptide) was 3.4%, the “Q3—living cells (7-AAD− Annexin V−)” value ([3]; 60 μM peptide) was 76.2% and the “Q1—dead cells (7-AAD+)” value ([3]; 120 μM peptide) was 1.4%. For the same sequence, the “Q2—late apoptosis cells (7-AAD+ Annexin V+)” value ([3]; 120 μM peptide) was 47.5%, the “Q4—early apoptosis cells (Annexin V+ 7-AAD−)” value ([3]; 120 μM peptide) was 14.8% and the “Q3—living cells (7-AAD− Annexin V−)” value ([3]; 120 μM peptide) was 36.3%. The “Q1 (7-AAD+) dead cells” value ([4]; 60 μM peptide) was 0.3%, the “Q2 (7-AAD+ Annexin V+) late apoptotic cells” value ([4]; 60 μM peptide) was 8.6% and the “Q4 (Annexin V+ 7AAD−) early apoptotic cells” value ([4]; 60 μM peptide) was 5.9%. The “Q1 (7-AAD+) dead cells” value ([4]; 120 μM peptide) was 2.8%, the “Q2 (7-AAD+ Annexin V+) late apoptotic cells” value ([4]; 120 μM peptide) was 47.8% and the “Q4 (Annexin V+ 7AAD−) early apoptotic cells” value ([4]; 120 μM peptide) was 13.5%. The “cell population that underwent apoptosis” value ([4]; 72 h, flow cytometry PE Annexin V/7-AAD, concentration not stated in the sentence (values match 120 μM)) was “over 50%”, the “concentration with cytotoxic effect” value (MCF7 tumour cell line) was “exceed 200 μg/mL and > 80 μM” and the solubility in water [5] was “water soluble”. The solubility ([5]; distilled water with 0.1% TFA, ref product specifications (SIGMA M7402-1MG)) was “soluble” and the haemolysis [6] was “nonhaemolytic”.
